In patent US8673914B2, “Use of phosphodiesterase inhibitors for treating multidrug resistance” (St. John's University, priority 2011, dated 2014):
Where two headings read alike, the source gives them in different places. Marks after values point to notes of the source that are not given here.

What was measured:
[1] = system: MCF-7; assay: MTT cytotoxicity/reversal assay (Example 2); type: cell-based
Description: (§1) The ABCB1-overexpressing drug resistant cell line KB-V1 (generously provided by Dr. Gottesman, NCI, NIH) was established by a stepwise concentration increase of vinblastine in the culture medium of KB-3-1 cells and subsequently culturing these cells in medium with 1 μg/mL of vinblastine. An ABCC1-overexpressing MDR cell line, KB-CV60, was also derived from KB-3-1 cells and was maintained in medium with 1 μg/mL of cepharanthine and 60 ng/mL of vincristine. Both KB-C2 and KB-CV60 cell lines were kindly provided by Dr. Akiyama (Kagoshima University, Japan). HEK293/pcDNA3.1, ABCG2-482-R5, ABCG2-482-G2, and ABCG2-482-T7 cells were established by selection with 2 mg/mL G418 after transfecting HEK293 with either (1) empty pcDNA3.1 vector or (2) pcDNA3.1 vector containing full length ABCG2 coding either (2a) wild-type arginine (R) or mutant (2b) glycine (G) or (2c) threonine (T) at amino acid position 482, respectively. The wild-type ABCG2-overexpressing drug-resistant cell line MCF-7/Flv1000 was cultured in the medium with 1 μM of flavopiridol. […] Another G482 mutant ABCG2-overexpressing drug resistant cell line, S1-M1-80, was maintained in the medium with 80 μM of mitoxantrone. […] All the cell lines were grown as adherent monolayers in flasks with DMEM (Dulbecco's modified Eagle's medium) culture medium (Hyclone Co.) containing 10% bovine serum at 37° C. in a humidified atmosphere of 5% CO2.
(§2) Cells in 96-well plates were preincubated with or without the reversal agents for 1 h and then different concentrations of chemotherapeutic drugs were added into designated wells. After 68 h of incubation, MTT solution (4 mg/mL) was added to each well, and the plate was further incubated for 4 h, allowing viable cells to change the yellow-colored MTT into dark-blue formazan crystals. Subsequently the medium was discarded, and […] of DMSO was added into each well to dissolve the formazan crystals. The absorbance was determined at 570 nm by an OPSYS MR Microplate Reader from DYNEX Technologies, Inc.

[2] = system: S1-M1-80; assay: MTT cytotoxicity/reversal assay (Example 2); type: cell-based
Description: as §1, §2

[3] = system: HEK293/pcDNA3; assay: MTT cytotoxicity/reversal assay (Example 2); type: cell-based
Description: as §1, §2

[4] = system: S1; assay: MTT cytotoxicity/reversal assay (Example 2); type: cell-based
Description: as §1, §2

[5] = system: MCF-7/Flv1000; assay: MTT cytotoxicity/reversal assay (Example 2); type: cell-based
Description: as §1, §2

[6] = system: MCF7/ADVP3000; assay: MTT cytotoxicity/reversal assay (Example 2); type: cell-based
Description: as §1, §2

[7] = system: S1/FLV5000; assay: cells; type: cell-based
Description: as §1, §2

[8] = system: ABCG2-482-R2 (ABCG2); assay: MTT cytotoxicity/reversal assay (Example 1)
Description: (§3) The KB-C2 and KB-3-1 were kindly provided by Dr. Akiyama (Kagoshima University, Japan). HEK293-pcDNA3.1 and wild-type HEK/ABCG2 transfected cells were established by selection with G418 after transfecting HEK293 with either (1) empty pcDNA3.1 vector or (2) pcDNA3.1 vector containing full length of ABCG2 coding arginine (R) at amino acid position 482, and were then cultured in a medium with 2 mg/ml of G418 (ABCG2-482-R2 cells). Similarly, the HEK/MRP1 (ABCC1) and HEK/ABCB1 cells were generated by transfecting the HEK293 cells with either the MRP1 expression vector or the ABCB1 expression vector. All of the cell lines were grown in Dulbecco's modified Eagle's medium (DMEM) supplemented with 10% bovine serum, 100 units/ml penicillin, and […] streptomycin in a humidified incubator containing 5% CO2 at 37° C.
(§4) The MTT assay was used to assess cytotoxicity. The cultured cells were harvested with trypsin and resuspended in a final concentration of 4×10^3 cells/well for KB-3-1; 7.5×10^3 cells/well for KB-C2; and 8×10^3 for all of the other cell lines used in this study. Cells were seeded evenly in 96-well multiplates. […] After 68 h of incubation, 20 μl of the MTT solution (4 mg/ml) was added to each well, and the plate was further incubated for 4 h at 37° C., allowing viable cells to convert the yellow-colored MTT into dark-blue formazan crystals. Subsequently, the medium was discarded, and 100 μl of DMSO was added into each well to dissolve the formazan crystals, generating purple color. The absorbance was determined at 570 nm by an OPSYS Microplate Reader from DYNEX Technologies, Inc. (Chantilly, Va.). […] The degree of the reversal of multidrug resistance (MDR) was calculated by dividing the IC50 of an anticancer drug, e.g., an antineoplastic or chemotherapeutic drug (agent, compound), in a cell type in the absence of a reversal agent by the IC50 of the anticancer drug in the same cell type in the presence of the reversal agent. The IC50 values were calculated from survival curves using the Bliss method.

[9] = system: HEK293/pcDNA3.1; assay: MTT cytotoxicity/reversal assay (Example 1); type: cell-based
Description: as §3, §4

[10] = system: HEK/ABCG2-T7; assay: MTT cytotoxicity/reversal assay (Example 2)
Description: as §1, §2

[11] = system: HEK/ABCG2-G2; assay: MTT cytotoxicity/reversal assay (Example 2)
Description: as §1, §2

[12] = system: HEK/ABCG2-R5; assay: MTT cytotoxicity/reversal assay (Example 2)
Description: as §1, §2

[13] = system: HEK 293-pcDNA-3.1; assay: MTT cytotoxicity assay (Example 4); type: cell-based; conditions: read-out: IC50 of cisplatin; HEK 293-pcDNA-3.1; alone
Description: The MRP7 cDNA was generously provided by Dr. Gary Kruh (University of Illinois, Chicago, Ill.) and inserted into the pcDNA3.1 expression vector. […] Individual colonies were selected in medium containing G418 (1 mg/ml) and cultured for further analysis.
MTT colorimetric assay was performed to analyze the drug sensitivity as previously described (Shi et al. (2007) Cancer Res. 67:11012-20). HEK293-pcDNA3.1 and HEK/MRP7 cells were seeded into 96-well plates in triplicate at 6000 cells/well.
After drug incubation of 68 h, 20 μl MTT solution (4 mg/ml) was added into each well. […] The Bliss method was used to calculate the IC50 values according to survival curves.

[14] = system: KB-V1; assay: MTT cytotoxicity/reversal assay (Example 2); type: cell-based, human; conditions: read-out: IC50 of cisplatin, alone
Description: as §1, §2

[15] = system: KB-3-1; assay: MTT cytotoxicity/reversal assay (Example 2); type: cell-based, human; conditions: read-out: IC50 of cisplatin, alone
Description: as §1, §2

[16] = system: KB-C2; assay: MTT cytotoxicity/reversal assay (Example 2); type: cell-based, human; conditions: read-out: IC50 of cisplatin, alone
Description: as §1, §2

[17] = system: KB-3-1; assay: MTT cytotoxicity/reversal assay (Example 1); type: cell-based, human; conditions: read-out: IC50 of cisplatin, alone
Description: as §3, §4

[18] = system: HEK/MRP1 (ABCC1); assay: MTT cytotoxicity/reversal assay (Example 1); type: cell-based; conditions: +10 μM reversal agent
Description: The KB-C2 and KB-3-1 were kindly provided by Dr. Akiyama (Kagoshima University, Japan). […] Similarly, the HEK/MRP1 (ABCC1) and HEK/ABCB1 cells were generated by transfecting the HEK293 cells with either the MRP1 expression vector or the ABCB1 expression vector. All of the cell lines were grown in Dulbecco's modified Eagle's medium (DMEM) supplemented with 10% bovine serum, 100 units/ml penicillin, and […] streptomycin in a humidified incubator containing 5% CO2 at 37° C.
as §4

[19] = read-out: IC50 of cisplatin, alone
[20] = Homo sapiens, alone, read-out: IC50 of mitoxantrone
[21] = Homo sapiens, alone, read-out: IC50 of flavopiridol

## CCc1c2c(nc3ccc(O)cc13)-c1cc3c(c(=O)n1C2)COC(=O)[C@]3(O)CC [SN-38, 7-ethyl-10-hydroxy-20(S)-camptothecin]
[1]; alone
  fold-resistance, SN-38: (1.0)^c
[1]; alone, read-out: IC50 of SN-38
  IC50: 1220 ± 263 nM
[2]; alone
  fold-resistance, SN-38: (14.4)
[2]; alone, read-out: IC50 of SN-38
  IC50: 3550 ± 1400 nM
[3]; alone
  fold-resistance, SN-38: (1.0)^c
[3]; alone, read-out: IC50 of SN-38
  IC50: 5.8 ± 0.2 nM
[4]; alone
  fold-resistance, SN-38: (1.0)^c
[4]; alone, read-out: IC50 of SN-38
  IC50: 245 ± 17 nM
[5]; MCF-7/Flv1000, alone
  fold-resistance, SN-38: (18.7)
[5]; MCF-7/Flv1000, alone, read-out: IC50 of SN-38
  IC50: 22800 ± 2000 nM
[6]; alone
  fold-resistance, SN-38: (11.3)
[6]; alone, read-out: IC50 of SN-38
  IC50: 14300 ± 1620 nM
[7]; S1/FLV5000, alone
  fold-resistance, SN-38: (1.4)
[7]; S1/FLV5000, alone, read-out: IC50 of SN-38
  IC50: 344 ± 87.4 nM
[8]; alone
  fold reversal, SN-38: (1.00)
[8]; read-out: IC50 of SN-38, alone
  IC50: 3650 ± 547 nM
[9]; HEK293/pcDNA3.1, alone
  fold reversal, SN-38: (1.00)
[9]; HEK293/pcDNA3.1, alone, read-out: IC50 of SN-38
  IC50: 116 ± 15.1 nM
[10]; HEK/ABCG2-T7, alone
  fold-resistance, SN-38: (20.2)
[10]; read-out: IC50 of SN-38, HEK/ABCG2-T7, alone
  IC50: 117 ± 70.4 nM
[11]; HEK/ABCG2-G2, alone
  fold-resistance, SN-38: (2.3)
[11]; read-out: IC50 of SN-38, HEK/ABCG2-G2, alone
  IC50: 204 ± 136 nM
[12]; HEK/ABCG2-R5, alone
  fold-resistance, SN-38: (22.1)
[12]; read-out: IC50 of SN-38, HEK/ABCG2-R5, alone
  IC50: 128 ± 88.2 nM

## N.N.[Cl][Pt][Cl] [Cisplatin, cisplatin]
[1]; [19]
  IC50: 34400 ± 1760 nM
[2]; [19]
  IC50: 18000 ± 2590 nM
[3]; [19]
  IC50: 1630 ± 170 nM
[4]; [19]
  IC50: 14700 ± 2230 nM
[5]; read-out: IC50 of cisplatin, MCF-7/Flv1000, alone
  IC50: 35100 ± 1860 nM
[6]; [19]
  IC50: 31100 ± 3200 nM
[13]
  IC50: 1570 ± 85 nM
[7]; read-out: IC50 of cisplatin, S1/FLV5000, alone
  IC50: 53400 ± 5800 nM
[9]; read-out: IC50 of cisplatin, HEK293/pcDNA3.1, alone
  IC50: 890000 ± 33900 nM
[14]
  IC50: 1760 ± 178 nM
[15]
  IC50: 1740 ± 161 nM
[16]
  IC50: 1730 ± 83 nM
[17]
  IC50: 1900 ± 70.9 nM

## O=C(Nc1cccc2c(=O)cc(-c3nn[nH]n3)oc12)c1ccc(OCCCCc2ccccc2)cc1 [ONO-1078]
[9]; HEK293/pcDNA3.1 (Table 6), +10 μM reversal agent
  fold reversal, vincristine: (1.33)
[18]
  fold reversal, vincristine: (5.9)

## O=C1c2c(O)ccc(O)c2C(=O)c2c(NCCNCCO)ccc(NCCNCCO)c21 [Mitoxantrone, mitoxantrone]
[1]; Homo sapiens, MCF7, alone, read-out: IC50 of mitoxantrone
  IC50: 7660 ± 193 nM
[1]; alone
  fold-resistance, mitoxantrone: (1.0)^c
[2]; [20]
  IC50: 224000 ± 8600 nM
[2]; alone
  fold-resistance, mitoxantrone: (559.3)
[3]; [20]
  IC50: 35.6 ± 3 nM
[3]; alone
  fold-resistance, mitoxantrone: (1.0)^c
[4]; alone
  fold-resistance, mitoxantrone: (1.0)^c
[4]; alone, read-out: IC50 of mitoxantrone
  IC50: 380 ± 41.6 nM
[5]; MCF-7/Flv1000, alone
  fold-resistance, mitoxantrone: (66.7)
[5]; MCF-7/Flv1000, alone, read-out: IC50 of mitoxantrone
  IC50: 511000 ± 16700 nM
[6]; [20]
  IC50: 279000 ± 6030 nM
[6]; alone
  fold-resistance, mitoxantrone: (36.4)
[7]
  fold-resistance, mitoxantrone: (3.0)
[7]; S1/FLV5000, alone, read-out: IC50 of mitoxantrone
  IC50: 1120 ± 144 nM
[10]; HEK/ABCG2-T7, alone
  fold-resistance, mitoxantrone: (23.7)
[11]; HEK/ABCG2-G2, alone
  fold-resistance, mitoxantrone: (31.0)
[12]; HEK/ABCG2-R5, alone
  fold-resistance, mitoxantrone: (12.8)

## CN1CC[C@H](c2c(O)cc(O)c3c(=O)cc(-c4ccccc4Cl)oc23)[C@H](O)C1 [Flavopiridol, flavopiridol]
[1]; Homo sapiens, MCF7, alone, read-out: IC50 of flavopiridol
  IC50: 344.3 ± 2.1 nM
[1]; alone
  fold-resistance, flavopiridol: (1.0)^c
[2]; [21]
  IC50: 699 ± 47 nM
[2]; alone
  fold-resistance, flavopiridol: (7.3)
[3]; [21]
  IC50: 164 ± 17.1 nM
[3]; alone
  fold-resistance, flavopiridol: (1.0)^c
[4]; alone
  fold-resistance, flavopiridol: (1.0)^c
[4]; alone, read-out: IC50 of flavopiridol
  IC50: 96.1 ± 9.6 nM
[5]; MCF-7/Flv1000, alone
  fold-resistance, flavopiridol: (19.9)
[5]; MCF-7 FLV1000, read-out: IC50 of flavopiridol
  IC50: 6860 ± 479 nM
[6]; [21]
  IC50: 3900 ± 414 nM
[6]; alone
  fold-resistance, flavopiridol: (11.3)
[7]; S1/FLV5000, alone
  fold-resistance, flavopiridol: (64.9)
[7]; S1/FLV5000, alone, read-out: IC50 of flavopiridol
  IC50: 6200 ± 463 nM
[10]
  fold-resistance, flavopiridol: (4.6)
[11]
  fold-resistance, flavopiridol: (2.4)
[12]
  fold-resistance, flavopiridol: (1.7)
